The values that follow are results of earlier work, collected in patent US6858221B2, “Intravascular delivery of mycophenolic acid” (Avantec Vascular Corporation, priority 2000, dated 2005).

The structures appear in SMILES notation.

For the series, the system named is Human SMC. The following applies: dose range 0.1 nM-1 μM, Mohacsi et al. 1997.

For the molecule `CO[C@H]1C[C@@H]2CC[C@@H](C)[C@@](O)(O2)C(=O)C(=O)N2CCCC[C@H]2C(=O)O[C@H]([C@H](C)C[C@@H]2CC[C@@H](O)[C@H](OC)C2)CC(=O)[C@H](C)/C=C(\C)[C@@H](O)[C@@H](OC)C(=O)[C@H](C)C[C@H](C)/C=C/C=C/C=C/1C` [Rapamycin, rapamycin], the 50% inhibitory concentration (IC50) is 1 nM.

One may read the IC50 as the concentration needed to halve the response being measured.
